Experimental data published in patent US6063782A, “Pyrrolopyridazine derivatives” (Sankyo Company, Limited, priority 1994, dated 2000).

Key:
[1] = biological target: proton.potassium-adenosine triphosphatase (H+.K+-ATPase) (Sus scrofa, UniProt P19156); assay: Proton.potassium-adenosine triphosphatase (H+.K+-ATPase) inhibition test; type: biochemical; conditions: microsomal fraction of porcine gastric mucosa, pH=6.85, 37° C.; result given in words only
Description: Proton.potassium-adenosine triphosphatase (H^+.K^+ -ATPase) activation test
According to the method reported by Sachs et al. [J. Biol. Chem., 251, 7690 (1976)], a microsomal fraction obtained from homogenized fresh porcine gastric mucosa by density gradient ultracentrifugation was used as the proton.potassium-adenosine triphosphatase preparation, 10 μl of a solution of a test compound in dimethylsulfoxide were added to 0.75 ml of 70 mM tris-HCl buffer solution (magnesium chloride 5 mM, potassium chloride 20 mM and pH=6.85) containing from 30 to 80 μg/ml (in terms of protein concentration) of the enzyme preparation and the mixture was incubated for 45 minutes at 37° C. with shaking at 200 times per minute. The enzyme reaction was initiated by adding 0.25 ml of 8 mM disodium adenosine triphosphate solution. After 20 minutes of the reaction time, the reaction was stopped by adding 1 ml of a 10k trichloroacetic acid-active carbon (100 mg) solution. The reaction solution was centrifuged (4° C., 3000 rpm, 15 minutes) and the inorganic phosphate in the supernatant prepared from adenosine triphosphate by hydrolysis was measured by colorimetry, according to the method of Yoda and Hokin [Biochem. Biophys. Res. Commun., 40, 880 (1970)]. In a similar manner, the amount of inorganic phosphate was measured in a reaction solution in the absence of potassium chloride. From the difference between the phosphate amounts in the presence and absence of potassium chloride, the proton-potassium-adenosine triphosphatase activity was calculated. Based on the activity value in the control and the values in the test compound at the various concentrations tested, the inhibiting rates (%) and then the 50? inhibiting concentrations (IC50) to proton.potassium-adenosine triphosphatase activity were obtained.

[2] = system: Helicobacter pylori strains 9470, 9472 and 9474; assay: Antibacterial activity against Helicobacter pylori; type: cell-based; conditions: strains 9470, 9472 and 9474, 37° C., 3 days, slightly aerobic; result given in words only
Description: Antibacterial activity against Helicobacter pylori The antibacterial activity of the compounds of the present invention were evaluated by measuring the minimum inhibitory concentration values (MIC) of the present compounds against Helicobacter pylori strains 9470, 9472 and 9474. These strains of Helicobacter pylori were incubated for 4 days on a plate medium. The medium was prepared by dissolving brain heart infusion agar (Product of DIFCO) in a defined amount of distilled water, by sterilization in an autoclave, injecting horse blood (Product of Nihon Seibutsu Zairyo Co.) into each plate for the medium to contain 7% of the blood and by solidifying. Under slightly aerobic conditions, Helicobacter pylori cultivated at 37° C. for 4 days was suspended in a physiological saline solution for its inocular size to be about 10^8 CFU/ml. The suspension was diluted 100 times, and about 10 μl of the diluted suspension was inoculated on a medium for MIC determination. The medium for MIC determination used had the same compounds as those for preculture. […] In a similar way to the preculture, Helicobacter pylori was cultivated at 37° C. for 3 days under slightly aerobic conditions. […] The minimum concentration which gave no bacterial growth was regarded as MIC of the compound of the present invention.

[3] = system: gastric acid secretion; assay: Gastric acid secretion activity test using pyloric ligation in rats (Shay rat method); type: in vivo; conditions: male SD rats, 20 mg/kg injected into the duodenal region, 4 hours, result given in words only
Description: Gastric acid secretion activity test using pyloric ligation in rats (Shay rat method)
Pyloric ligation was conducted based on the method of Shay et al. [Gastroenterology, 5, 43 (1945)]. Male rats of SD strain were fasted for 24 hours; their abdomens were sectioned during anesthesia under ether. The duodenal and pyloric regions were exposed and the latter was ligated. A solution of a test compound (10 mg/ml) prepared by use of 1.5w parts of dimethylacetamide, 68.5% parts of polyethyleneglycol (PEG-400) and 30% parts of physiological saline solution, was injected into the duodenal region for the dose to be 20 mg/kg by use of a 1-ml syringe and an injection needle (26G). After injection of the test compound, the abdominal region was sutured. The animals were allowed to a stand for 4 hours without feeding food and water and then sacrified with carbon dioxide gas. The stomach was excised and gastric juice was gathered. The gastric juice sample was centrifuged (4° C., 2500 rpm, 15 minutes). The amount of the supernatant was measured to be as the gastric secretion. The acidity of the gastric juice was determined by the amount (ml) of 0.01 N sodium hydroxide solution required for titration of 0.1 ml of the supernatant to pH 7.0 by use of-an auto-titrating apparatus. The value of gastric acid secretion was calculated from the value of gastric secretion and the acidity of gastric juice. The inhibiting rate was obtained from the values of gastric acid secretion of the control group and of the administered group.

Sequence of proton.potassium-adenosine triphosphatase (H+.K+-ATPase) (P19156 whole entry): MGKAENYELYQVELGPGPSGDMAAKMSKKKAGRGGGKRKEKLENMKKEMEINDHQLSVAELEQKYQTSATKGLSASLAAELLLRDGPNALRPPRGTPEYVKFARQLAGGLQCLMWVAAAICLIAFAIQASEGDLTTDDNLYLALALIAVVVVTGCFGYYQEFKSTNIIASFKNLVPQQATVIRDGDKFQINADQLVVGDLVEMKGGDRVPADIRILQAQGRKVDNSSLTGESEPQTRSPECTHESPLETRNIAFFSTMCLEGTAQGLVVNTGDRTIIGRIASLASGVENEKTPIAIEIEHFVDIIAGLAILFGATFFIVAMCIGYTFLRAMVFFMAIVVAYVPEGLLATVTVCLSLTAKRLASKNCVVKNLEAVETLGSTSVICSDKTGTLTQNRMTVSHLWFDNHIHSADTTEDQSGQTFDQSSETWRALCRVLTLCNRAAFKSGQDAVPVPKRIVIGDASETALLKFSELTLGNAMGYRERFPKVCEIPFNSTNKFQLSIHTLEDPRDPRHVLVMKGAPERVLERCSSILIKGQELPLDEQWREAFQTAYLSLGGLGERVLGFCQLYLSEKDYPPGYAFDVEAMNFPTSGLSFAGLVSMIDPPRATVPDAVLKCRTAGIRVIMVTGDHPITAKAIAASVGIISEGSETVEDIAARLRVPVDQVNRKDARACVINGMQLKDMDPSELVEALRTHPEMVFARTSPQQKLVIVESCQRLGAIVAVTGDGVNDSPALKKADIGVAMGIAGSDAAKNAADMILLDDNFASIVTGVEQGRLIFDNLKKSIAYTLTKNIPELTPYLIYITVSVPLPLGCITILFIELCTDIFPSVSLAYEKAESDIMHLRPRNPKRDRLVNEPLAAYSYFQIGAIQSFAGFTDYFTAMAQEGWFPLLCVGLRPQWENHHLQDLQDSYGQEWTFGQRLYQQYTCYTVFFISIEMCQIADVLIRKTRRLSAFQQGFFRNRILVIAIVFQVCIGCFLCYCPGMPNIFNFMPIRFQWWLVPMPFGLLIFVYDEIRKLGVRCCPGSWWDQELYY
Sequence of proton.potassium-adenosine triphosphatase (H+.K+-ATPase) (P18434 whole entry partner): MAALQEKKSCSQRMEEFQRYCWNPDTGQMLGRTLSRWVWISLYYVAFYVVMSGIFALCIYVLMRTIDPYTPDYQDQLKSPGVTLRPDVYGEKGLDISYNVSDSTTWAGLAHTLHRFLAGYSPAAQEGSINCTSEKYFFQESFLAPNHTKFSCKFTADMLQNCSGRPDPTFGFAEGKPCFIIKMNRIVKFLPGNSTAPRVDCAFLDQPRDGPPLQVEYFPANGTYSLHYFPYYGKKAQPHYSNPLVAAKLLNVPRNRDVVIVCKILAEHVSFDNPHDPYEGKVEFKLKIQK

- inhibiting concentrations (IC50) to proton.potassium-adenosine triphosphatase activity [1]: excellent activity
- minimum inhibitory concentration (MIC) against Helicobacter pylori [2]: excellent antibacterial activity
SMILES: C=CCn1c(C)c(C)c2cnnc(OCc3ccc(F)cc3)c21 [Example 7, 7-(4-Fluorobenzyloxy)-2,3-dimethyl-1-(2-propenyl)pyrrolo[2,3-d]pyridazine]
- inhibiting rate of gastric acid secretion [3]: excellent activity
